Experimental data taken from patent US12146004B2, “Polymyxin compounds and uses thereof” (priority 2014, dated 2024).
≈ marks a conversion by molar mass, not a printed value. Like-named read-outs stand apart in the source and are kept apart here. Bridge positions count the residues as written; N and C are the ends. Square brackets hold non-standard residues; d marks the D form. Peptide text beside a SMILES is read from it. * marks the point of attachment. ξ: configuration not given here. ξHexahydromandeloyl = O=C(C(O)C1CCCCC1)*; X9 = Cc1ccc(CO[C@@H](CCN)C(=O)*)cc1; dCha = N[C@H](CC1CCCCC1)C(=O)O; Thr(3ξ) = CC(O)[C@H](N)C(=O)O; Dab = NCC[C@H](N)C(=O)O; Dap = NC[C@H](N)C(=O)O

Experiments:
Format in all cases: cell-based
Acinetobacter baumannii = test system: Acinetobacter baumannii
Description: (§1) To evaluate the potency and spectrum of the compounds, susceptibility testing was performed against up to nine strains of each of the Gram negative pathogens, Escherichia coli, Pseudomonas aeruginosa, Klebsiella pneumoniae and Acinetobacter baumannii.
(§2) The values in Table 2 are MIC (μg/mL) against strains of E. coli, K. pneumoniae, P. aeruginosa and A. baumanii, including strains which show elevated MICs to Polymyxin.
(§3) The values in Table 2A are MIC (μg/mL).
(§4) The in vitro activity of compounds 26 and C7 (FADDI-02) against resistant bacterial strains was compared. The resistant strains included including Escherichia coli, Pseudomonas aeruginosa, Klebsiella pneumoniae and Acinetobacter baumannii strains. The data is provided in Table 2C, where the strains are identified. The values in Table 2 are MIC (μg/mL).

Klebsiella pneumoniae = test system: Klebsiella pneumoniae
Description: as §1, §2, §3, §4

Pseudomonas aeruginosa = test system: Pseudomonas aeruginosa
Description: as §1, §2, §3, §4

Escherichia coli = test system: Escherichia coli
Description: as §1, §2, §3, §4

Molecule	MIC A. baumanii 056 (Acinetobacter baumannii)	MIC A. baumanii ATCC BAA-747 (Acinetobacter baumannii)	MIC A. baumanii NCTC 13424 (Acinetobacter baumannii)	MIC K. pneumoniae 063 (Klebsiella pneumoniae)	MIC K. pneumoniae 065 (Klebsiella pneumoniae)	MIC K. pneumoniae ATCC 4352 (Klebsiella pneumoniae)	MIC K. pneumoniae ATCC 13882 (Klebsiella pneumoniae)	MIC P. aeruginosa 068 (Pseudomonas aeruginosa)	MIC P. aeruginosa 070 (Pseudomonas aeruginosa)	MIC P. aeruginosa ATCC 27853 (Pseudomonas aeruginosa)	MIC P. aeruginosa CCUG 59347 (Pseudomonas aeruginosa)	MIC E. coli 058 (Escherichia coli)	MIC E. coli 061 (Escherichia coli)	MIC E. coli ATCC 25922 (Escherichia coli)	MIC E. coli NCTC 9001 (Escherichia coli)	MIC A. baumanii 053 (Acinetobacter baumannii)	further results
CC(C)C[C@@H]1NC(=O)[C@@H](CC2CCCCC2)NC(=O)[C@H](CCN)NC(=O)[C@@H](NC(=O)[C@H](CN)NC(=O)[C@@H](NC(=O)C(CCN)c2ccc(F)cc2)C(C)O)CCNC(=O)[C@H]([C@@H](C)O)NC(=O)[C@H](CCN)NC(=O)[C@H](CCN)NC1=O (single isomer, unassigned; isomer 2) [Example 44, 4-amino-2-(4-fluorophenyl) butanoyl L-Thr-L-Dap-polymyxin [D-cyclohexylalanine]-6 heptapeptide. Isomer 2]	8 µg/mL (≈ 7.05 µM)	0.06 µg/mL (≈ 0.0529 µM)	0.06 µg/mL (≈ 0.0529 µM)	16 µg/mL (≈ 14.1 µM)	0.5 µg/mL (≈ 0.441 µM)	0.125 µg/mL (≈ 0.11 µM)	0.25 µg/mL (≈ 0.22 µM)	2 µg/mL (≈ 1.76 µM)	1 µg/mL (≈ 0.882 µM)	0.25 µg/mL (≈ 0.22 µM)	0.5 µg/mL (≈ 0.441 µM)	2 µg/mL (≈ 1.76 µM)	8 µg/mL (≈ 7.05 µM)	0.25 µg/mL (≈ 0.22 µM)	0.03 µg/mL (≈ 0.0264 µM)	–	–
2-Aminomethyl-4- methyl pentanoyl polymyxin L-Thr-L-Dap- polymyxin [D-{4-(4- trifluoromethyl) phenyl} Phe]-6]heptapeptide. Isomer 1 [Example 19]	–	–	–	–	–	–	–	–	–	–	–	–	–	–	–	–	MIC A. baumanii ATCC BAA-747 (Acinetobacter baumannii; strain ATCC BAA-747): 1 µg/mL; MIC K. pneumoniae 065 (Klebsiella pneumoniae; strain 065): 16 µg/mL; MIC K. pneumoniae ATCC 4352 (Klebsiella pneumoniae; strain ATCC 4352): 1 µg/mL; MIC P. aeruginosa ATCC 27853 (Pseudomonas aeruginosa; strain ATCC 27853): 2 µg/mL; MIC E. coli 058 (Escherichia coli; strain 058): 16 µg/mL; MIC E. coli ATCC 25922 (Escherichia coli; strain ATCC 25922): 1 µg/mL

Continued, in another order:

MIC A. baumanii 056 (Acinetobacter baumannii)	MIC A. baumanii ATCC BAA-747 (Acinetobacter baumannii)	MIC A. baumanii NCTC 13424 (Acinetobacter baumannii)	MIC K. pneumoniae 063 (Klebsiella pneumoniae)	MIC K. pneumoniae 065 (Klebsiella pneumoniae)	MIC K. pneumoniae ATCC 4352 (Klebsiella pneumoniae)	MIC K. pneumoniae ATCC 13882 (Klebsiella pneumoniae)	MIC P. aeruginosa 068 (Pseudomonas aeruginosa)	MIC P. aeruginosa 070 (Pseudomonas aeruginosa)	MIC P. aeruginosa ATCC 27853 (Pseudomonas aeruginosa)	MIC P. aeruginosa CCUG 59347 (Pseudomonas aeruginosa)	MIC E. coli 058 (Escherichia coli)	MIC E. coli 061 (Escherichia coli)	MIC E. coli ATCC 25922 (Escherichia coli)	MIC E. coli NCTC 9001 (Escherichia coli)	MIC A. baumanii 053 (Acinetobacter baumannii)	Molecule	further results
–	0.125 µg/mL (≈ 0.103 µM)	0.5 µg/mL (≈ 0.413 µM)	–	16 µg/mL (≈ 13.2 µM)	–	0.25 µg/mL (≈ 0.207 µM)	–	–	0.5 µg/mL (≈ 0.413 µM)	0.5 µg/mL (≈ 0.413 µM)	8 µg/mL (≈ 6.61 µM)	–	0.06 µg/mL (≈ 0.0496 µM)	0.06 µg/mL (≈ 0.0496 µM)	–	CC(C)C[C@@H]1NC(=O)[C@@H](CC2CCCCC2)NC(=O)[C@H](CCN)NC(=O)[C@@H](NC(=O)[C@H](CCN)NC(=O)[C@@H](NC(=O)[C@H](CCN)NC(=O)C(O)C2CCCCC2)C(C)O)CCNC(=O)[C@H]([C@@H](C)O)NC(=O)[C@H](CCN)NC(=O)[C@H](CCN)NC1=O (stereo partly shown) [Example 37] (ξHexahydromandeloyl-[Dab][Thr(3ξ)][Dab][Dab][Dab][dCha]L[Dab][Dab]T; lactam 4-C)	–
32 µg/mL (≈ 27.6 µM)	0.125 µg/mL (≈ 0.108 µM)	0.125 µg/mL (≈ 0.108 µM)	64 µg/mL (≈ 55.2 µM)	4 µg/mL (≈ 3.45 µM)	0.25 µg/mL (≈ 0.215 µM)	0.25 µg/mL (≈ 0.215 µM)	8 µg/mL (≈ 6.89 µM)	16 µg/mL (≈ 13.8 µM)	0.25 µg/mL (≈ 0.215 µM)	0.25 µg/mL (≈ 0.215 µM)	4 µg/mL (≈ 3.45 µM)	16 µg/mL (≈ 13.8 µM)	0.125 µg/mL (≈ 0.108 µM)	0.125 µg/mL (≈ 0.108 µM)	64 µg/mL (≈ 55.2 µM)	Cc1ccc(CO[C@@H](CCN)C(=O)N[C@H](C(=O)N[C@@H](CN)C(=O)N[C@H]2CCNC(=O)[C@H]([C@@H](C)O)NC(=O)[C@H](CCN)NC(=O)[C@H](CCN)NC(=O)[C@H](CC(C)C)NC(=O)[C@@H](CC3CCCCC3)NC(=O)[C@H](CCN)NC2=O)[C@@H](C)O)cc1 [Example 71, (S)-4-amino-2-((4-methylbenzyl)oxy) butanoyl L-Thr-L-Dap-polymyxin [D-cyclohexylalanine]-6 heptapeptide.] (X9-T[Dap][Dab][Dab][dCha]L[Dab][Dab]T; lactam 3-C)	–
>64 µg/mL	8 µg/mL (≈ 6.94 µM)	–	>64 µg/mL	64 µg/mL (≈ 55.5 µM)	0.5 µg/mL (≈ 0.434 µM)	–	16 µg/mL (≈ 13.9 µM)	32 µg/mL (≈ 27.8 µM)	1 µg/mL (≈ 0.868 µM)	–	32 µg/mL (≈ 27.8 µM)	64 µg/mL (≈ 55.5 µM)	1 µg/mL (≈ 0.868 µM)	–	>64 µg/mL	CC(C)CC(CN)C(=O)N[C@H](C(=O)N[C@@H](CN)C(=O)N[C@H]1CCNC(=O)[C@H]([C@@H](C)O)NC(=O)[C@H](CCN)NC(=O)[C@H](CCN)NC(=O)[C@H](CC(C)C)NC(=O)[C@@H](Cc2ccc(-c3ccccc3)cc2)NC(=O)[C@H](CCN)NC1=O)C(C)O (single isomer, unassigned; isomer 1) [Example 15, 2-aminomethyl-4-mehtly pentanoyl polymyxin L-Thr-L-Dap-polymyxin [D-(4-phenyl Phe)]-6]heptapeptide. Isomer 1]	MIC K. pneumoniae 062 (Klebsiella pneumoniae): >64 µg/mL; MIC K. pneumoniae 064 (Klebsiella pneumoniae): >64 µg/mL; MIC K. pneumoniae 066 (Klebsiella pneumoniae): 64 µg/mL (≈ 55.5 µM); MIC K. pneumoniae 067 (Klebsiella pneumoniae): >64 µg/mL; MIC E. coli 059 (Escherichia coli): 16 µg/mL (≈ 13.9 µM); MIC E. coli 060 (Escherichia coli): 32 µg/mL (≈ 27.8 µM)
